Test results: patent US10750729B2, “Pig for atrioventricular block model, monkey for atrioventricular block model, guinea pig for atrioventricular block model, and use thereof” (Toho University, priority 2012, dated 2020)

Columns and labels:
rat = settings: cited from earlier work
Guinea pigs (Hartley) = experiment: Test Example 3-2: electrocardiogram and aortic pressure of halothane-anesthetized guinea pigs (BAF312); format: in vivo; settings: guinea pig
Experimental: Guinea pigs (Hartley, body weight: 420 g to 650 g, male, obtained from Japan SLC, Inc.) were each anesthetized by intraperitoneally administering thereto sodium thiopental (product of Mitsubishi Tanabe Pharma Corporation) at 50 mg/kg. Next, a tracheal cannula was inserted into each of the guinea pigs. While their body temperature was being maintained at 37° C. with a warming pad, the guinea pigs were allowed to inhale 100% by volume oxygen and 1% by volume vaporized halothane (product of Takeda Pharmaceutical Company Limited.) using an artificial respirator for experimental animals (SN-480-7; product of shimano Co., Ltd.). Here, the artificial respirator for experimental animals was set to a tidal volume of 10 mL/kg and a respiration rate of 60 strokes/min. Next, a cannula for drug administration was inserted to their left femoral vein. In addition, a heparinized catheter for monitoring the blood pressure was inserted to the aorta through the left femoral […]. Then, ECG standard limb II leads was continuously recorded.
Each of the guinea pigs (n=12) of Example 3 was recorded for an electrocardiogram before administration of a drug or a solvent.
BAF312 (product of Meiji Seika Pharma Co., Ltd.) was dissolved in dimethyl sulfoxide (hereinafter may be referred to as “DMSO”; product of Sigma-Aldrich Inc.) so as to have a concentration of 0.003 mg/mL.
After the evaluation of base control, the cannula for drug administration was inserted, and the above-prepared BAF312 solution was intravenously administered to each of the guinea pigs (n=4) of Example 3 for 10 min at a dose of 0.001 mg/kg. These guinea pigs were evaluated for parameters by the following evaluation methods at 5 min, 10 min, 15 min, 20 min, 30 min, 45 min or 60 min after the administration of the BAF312 solution.
BAF312 (product of Meiji Seika Pharma Co., Ltd.) was dissolved in DMSO (product of Sigma-Aldrich Inc.) so as to have a concentration of 0.03 mg/mL.
After the evaluation of base control, the cannula for drug administration was inserted, and the above-prepared BAF312 solution was intravenously administered to each of the guinea pigs (n=4) of Example 3 for 10 min at a dose of 0.01 mg/kg. These guinea pigs were evaluated for parameters by the following evaluation methods at 5 min, 10 min, 15 min, 20 min, 30 min, 45 min or 60 min after the administration of the BAF312 solution.
The aortic pressure and the electrocardiogram were monitored using a polygraph system (RM-6000, product of NIHON KOHDEN Co. Ltd.) and analyzed with a full-automated analysis system in real time (WinVAS ver. 3, 1.1R03; product of Physio-Tech Co., Ltd).
Parameters of the electrocardiogram were measured three times, and the obtained values were averaged. Atrial rate was calculated from PP interval of the electrocardiogram. Ventricular rate was calculated from RR interval of the electrocardiogram.
The measurements in FIGS. 6A to 6E are expressed as mean±SE (n=4). The difference between the parameters was evaluated with one-way repeated measures analysis of variance (ANOVA). It was considered that p<0.05 is statistically significant. In FIG. 6A to 6C and FIG. 6E, “white circle,” “white square” and “white triangle” each mean absence of a significant difference relative to the value of the evaluation of base control (C), and “black circle” means presence of a significant difference relative to the value of the evaluation of base control (C).
Also, in FIG. 6D, “white circle” means absence of development of atrioventricular block or presence of development of first-degree atrioventricular block, “white triangle” means presence of development of advanced atrioventricular block, “x-mark” means presence of development of third-degree atrioventricular block (complete atrioventricular block), and #1 to 4 refer to each individual.

[1] = high-dose 0.01 mg/kg/10 min i.v.
[2] = low-dose 0.001 mg/kg/10 min i.v.
[3] = low-dose 0.001 mg/kg/10 min i.v., from 5 min to 60 min

Row | SMILES | prolongation of PR interval (rat) | change in QRS width (Guinea pigs (Hartley); [1]) | change in QT interval (Guinea pigs (Hartley); [1]) | change in atrial rate (Guinea pigs (Hartley); [1]) | change in blood pressure (MBP) (Guinea pigs (Hartley); [1]) | correspondence of P wave and R wave in the electrocardiogram (Guinea pigs (Hartley); high-dose 0.01 mg/kg/10 min i.v., 45 min after start) | change in PR interval (Guinea pigs (Hartley); high-dose 0.01 mg/kg/10 min i.v., before development of atrioventricular block) | change in ventricular rate (Guinea pigs (Hartley); high-dose 0.01 mg/kg/10 min i.v., from 10 min to 15 min) | individuals that developed complete atrioventricular block (Guinea pigs (Hartley); high-dose 0.01 mg/kg/10 min i.v., n=4) | change in PR interval (Guinea pigs (Hartley); [2]) | change in QRS width (Guinea pigs (Hartley); [2]) | change in QT interval (Guinea pigs (Hartley); [2]) | change in blood pressure (MBP) (Guinea pigs (Hartley); [2]) | change in atrial rate (Guinea pigs (Hartley); [3]) | change in ventricular rate (Guinea pigs (Hartley); [3])
1 | CCCCCCCCCCCCC/C=C/[C@@H](O)[C@@H](N)COP(=O)(O)O [sphingosine-1-phosphate] | not observed |  |  |  |  |  |  |  |  |  |  |  |  |  | 
2 | CCc1cc(/C(C)=N/OCc2ccc(C3CCCCC3)c(C(F)(F)F)c2)ccc1CN1CC(C(=O)O)C1 [BAF312, siponimod] |  | no significant change | no significant change | no significant change | increase | the atrium and the ventricle are contracted independently of each other at their own individual rhythms | prolonged | decrease | all of the four individuals | prolongation of PR interval was observed | no significant change | no significant change | increase | decrease | decrease
